Experimental data reported in ChEMBL document CHEMBL4483862, “Open-source discovery of chemical leads for next-generation chemoprotective antimalarials” (2018).

System: Plasmodium berghei
Assay: Luciferase/luciferin-expressing antifolate-resistant parasites were used to infect a culture of HepG2 cells that were pre-incubated with compounds. Infected hepatocytes emit light due to the luciferase reaction. Assay results are presented as the percent inhibition of light emission compared to control. […]
Type: functional
Conditions: sporozoite; for IC90: read-out: LUCIFERASE INFECTION ASSAY - IC90
[1] = read-out: LUCIFERASE INFECTION ASSAY - IC50

Row | SMILES | IC90 | IC50 [1] | further results
1 | O=[N+]([O-])c1ccccc1/C=N/n1c(-c2ccc(Cl)cc2)cs/c1=N\CC1CCCO1 (stereo not drawn) | 7.09 µM |  | IC50 (HEPG2TOX_HILL_SLOPE 0.61, HEPG2TOX_R_SQUARED 0.914, PBLUC_HILL_SLOPE 1.45, PBLUC_R_SQUARED 0.571, read-out: LUCIFERASE INFECTION ASSAY - IC50): 1.55 µM
2 | Cc1c(C(=O)Nc2nc3c(s2)CCCCC3)[nH]c2c1C(=O)CC(C)(C)C2 | > 10 µM |  | IC50 (PBLUC_HILL_SLOPE 1.1, PBLUC_R_SQUARED 0.304, read-out: LUCIFERASE INFECTION ASSAY - IC50): 2.21 µM
3 | CO/N=C(/CS(=O)(=O)c1ccc(OC)cc1)c1ccc(Cl)cc1 | > 9.33 µM |  | IC50 (HEPG2TOX_HILL_SLOPE 2.67, HEPG2TOX_R_SQUARED 0.896, PBLUC_HILL_SLOPE 4.33, PBLUC_R_SQUARED 0.342, read-out: LUCIFERASE INFECTION ASSAY - IC50): 6.46 µM
4 | CC(C)CCN(C(=O)CN1c2ccccc2CC1C)c1c(N)n(Cc2ccccc2)c(=O)[nH]c1=O (stereo not drawn) | > 10 µM | > 10 µM | 
5 | N=C1NC(=O)C(C2(O)C(=O)N(Cc3ccccc3)c3ccc(Cl)cc32)S1 (stereo not drawn) | > 8.51 µM |  | IC50 (PBLUC_HILL_SLOPE 0.13, PBLUC_R_SQUARED 0.0166, read-out: LUCIFERASE INFECTION ASSAY - IC50): > 8.51 µM
6 | O=C(Cn1c(=O)oc2ccccc21)N1CCCC1c1nc2ccccc2s1 (stereo not drawn) | > 10 µM |  | IC50 (PBLUC_HILL_SLOPE 7.81, PBLUC_R_SQUARED 0.364, read-out: LUCIFERASE INFECTION ASSAY - IC50): 8.38 µM
7 | CCOc1cc(/C=C/C(=O)N(c2ccccc2)c2nc(-c3ccc(F)cc3)cs2)cc(Cl)c1OC | > 10 µM |  | IC50 (FFLUC_HILL_SLOPE 10.9, FFLUC_R_SQUARED 0.679, read-out: LUCIFERASE INFECTION ASSAY - IC50): > 10 µM
8 | CCOC(=O)c1c[nH]c2c(F)cc(F)cc2c1=O | > 13 µM | > 13 µM | 
9 | O=c1c2ccccc2nc(SCc2cn3cc(Cl)ccc3n2)n1-c1ccccc1F | > 10 µM |  | IC50 (PBLUC_HILL_SLOPE 16.9, PBLUC_R_SQUARED 0.0163, read-out: LUCIFERASE INFECTION ASSAY - IC50): 8.93 µM
10 | Clc1ccc(OCCN2CCN(c3ccc4nnnn4n3)CC2)cc1 | > 10 µM |  | IC50 (PBLUC_HILL_SLOPE 2.76, PBLUC_R_SQUARED 0.489, read-out: LUCIFERASE INFECTION ASSAY - IC50): 6.13 µM
11 | COc1ccc(/C=C(\C#N)c2n[nH]c(=O)c3ccccc23)cc1 | > 10 µM | 4.17 µM | 
12 | O=C(CN1CCN(Cc2nc3ccccc3s2)CC1)N1CCc2ccccc21 | > 10 µM | > 10 µM | 
13 | CCNC(=S)N/N=C/c1cc(Cl)cc(Cl)c1O | > 11.3 µM |  | IC50 (PBLUC_HILL_SLOPE 1.17, PBLUC_R_SQUARED 0.411, read-out: LUCIFERASE INFECTION ASSAY - IC50): > 11.3 µM
14 | NS(=O)(=O)c1ccc(-n2ncc(Nc3ccc(F)cc3)c(Cl)c2=O)cc1 | > 10 µM |  | IC50 (HEPG2TOX_HILL_SLOPE 0.263, HEPG2TOX_R_SQUARED 0.596, PBLUC_HILL_SLOPE 7.27, PBLUC_R_SQUARED 0.0377, read-out: LUCIFERASE INFECTION ASSAY - IC50): > 10 µM
15 | CN1CCN(c2ccc(-c3cn4c(-c5ccc(O)cc5)cnc4cn3)cc2)CC1 | > 8.56 µM |  | IC50 (FFLUC_HILL_SLOPE 7.73, FFLUC_R_SQUARED 0.293, read-out: LUCIFERASE INFECTION ASSAY - IC50): > 8.56 µM
16 | Cc1nc(SCC(=O)c2cc(C)n(-c3ccccc3)c2C)c2ccsc2n1 | > 10 µM | > 10 µM | 
17 | Fc1ccc(COc2ccccc2CNCc2cccnc2)cc1 | > 10.2 µM | > 10.2 µM | 
18 | Cc1ccc(C2=NNC(=Nc3cccc(S(=O)(=O)N(C)C)c3)SC2)cc1 | 4.33 µM | 3.5 µM | 
19 | CCOc1ccc(S(=O)(=O)Nc2ccccc2C(=O)Nc2nnc[nH]2)cc1 | > 10 µM | > 10 µM | 
20 | CNc1nc2cnc(Nc3ccccc3)cc2n1-c1cccc(C(F)(F)F)c1 | > 10 µM | > 10 µM | 
21 | CC(=O)Nc1cccc(-c2ccc3ncc(-c4ccc(CO)cc4)n3n2)c1 | 8.06 µM | 2.73 µM | 
22 | Cc1ccc(S(=O)(=O)N2CCCCC2)cc1NC(=O)C[N+]12CCN(CC1)CC2 | > 10 µM | > 10 µM | 
23 | Oc1ccc(C2=CCN(c3ncnc4ccccc34)CC2)cc1 | 2.89 µM |  | IC50 (HEPG2TOX_HILL_SLOPE 0.526, HEPG2TOX_R_SQUARED 0.691, PBLUC_HILL_SLOPE 1.57, PBLUC_R_SQUARED 0.66, read-out: LUCIFERASE INFECTION ASSAY - IC50): 0.716 µM
24 | OCc1ccc(-c2cnc3cnc(-c4ccc(Cl)cc4)cn23)cc1 | > 9.83 µM | > 9.83 µM | 
25 | O=C1N(Cc2ccccn2)C(=O)C2(CCN(C3CCc4ccccc4C3)CC2)N1Cc1ccccc1 (stereo not drawn) | > 6.87 µM |  | IC50 (PBLUC_HILL_SLOPE 10, PBLUC_R_SQUARED 0.136, read-out: LUCIFERASE INFECTION ASSAY - IC50): 6.39 µM

Row | SMILES | IC90 | IC50 [1] | further results
26 | Cc1cc(C)c(C(=O)C2CCN(C(=O)c3cccs3)CC2)c(C)c1 | > 9.66 µM |  | IC50 (PBLUC_HILL_SLOPE 1.97, PBLUC_R_SQUARED 0.657, read-out: LUCIFERASE INFECTION ASSAY - IC50): 3.99 µM
27 | Cc1ccc(-c2nc(-c3ccccc3)nc(N3CCN(C)CC3)c2C#N)cc1 | > 8.93 µM |  | IC50 (HEPG2TOX_HILL_SLOPE 0.407, HEPG2TOX_R_SQUARED 0.712, PBLUC_HILL_SLOPE 0.491, PBLUC_R_SQUARED 0.261, read-out: LUCIFERASE INFECTION ASSAY - IC50): > 8.93 µM
28 | COc1ccc(Sc2sc(C(C)=O)cc2[N+](=O)[O-])cc1 | > 10.7 µM | > 10.7 µM | 
29 | CCOc1cccc(-c2cn3c(-c4ccc(C#N)cc4)cnc3cn2)c1 | > 9.69 µM |  | IC50 (PBLUC_HILL_SLOPE 4.27, PBLUC_R_SQUARED 0.47, read-out: LUCIFERASE INFECTION ASSAY - IC50): 6.18 µM
30 | Cc1cc(=O)c(C(=O)Nc2cc(C(F)(F)F)ccc2N2CCCCC2)nn1-c1ccccc1Cl | > 10 µM | > 10 µM | 
31 | COc1ccc(NC(=O)Nc2cccc(C(F)(F)F)c2)cc1 | > 10.6 µM | > 10.6 µM | 
32 | COC(=O)c1cccnc1Nc1ccc(NS(=O)(=O)c2ccc(F)c(F)c2)cc1 | > 10 µM | > 10 µM | 
33 | COc1ccc(CN2CCCN(C(=O)c3ccc(CSc4nc5ccccc5[nH]4)cc3)CC2)cc1 | > 10 µM |  | IC50 (HEPG2TOX_HILL_SLOPE 1.31, HEPG2TOX_R_SQUARED 0.944, read-out: LUCIFERASE INFECTION ASSAY - IC50): > 10 µM
34 | CCCn1c(NC(=O)Cc2coc3cc(OC)ccc23)nc2ccccc21 | 1.31 µM |  | IC50 (FFLUC_HILL_SLOPE 16.7, FFLUC_R_SQUARED 0.137, HEPG2TOX_HILL_SLOPE 1.66, HEPG2TOX_R_SQUARED 0.728, PBLUC_HILL_SLOPE 12.1, PBLUC_R_SQUARED 0.477, read-out: LUCIFERASE INFECTION ASSAY - IC50): 1.09 µM
35 | c1ccc(CN2CCOCC2)c(CNc2ncnc3sccc23)c1 | > 10 µM |  | IC50 (HEPG2TOX_HILL_SLOPE 7.26, HEPG2TOX_R_SQUARED 0.756, read-out: LUCIFERASE INFECTION ASSAY - IC50): > 10 µM
36 | COc1cccc(NC(=O)N2CCc3nc(NCc4cccc(Oc5ccccc5)c4)ncc3C2)c1 | 3.67 µM |  | IC50 (HEPG2TOX_HILL_SLOPE 15.7, HEPG2TOX_R_SQUARED 0.806, PBLUC_HILL_SLOPE 104, PBLUC_R_SQUARED 0.398, read-out: LUCIFERASE INFECTION ASSAY - IC50): 3.59 µM
37 | CS(=O)(=O)Nc1cccc(-c2cn3c(-c4cccc(CO)c4)cnc3cn2)c1 | > 8.37 µM | > 8.37 µM | 
38 | COc1cc(C(=O)NC(c2ccccc2)c2ccc(C)cc2)ccc1OCC(=O)N1CCOCC1 (stereo not drawn) | > 10 µM | > 10 µM | 
39 | O=c1c2ccccc2c(=O)c2oc3cc4oc5c(=O)c6ccccc6c(=O)c5[nH]c4cc3[nH]c12 | 4 µM |  | IC50 (FFLUC_HILL_SLOPE 12.7, FFLUC_R_SQUARED 0.208, HEPG2TOX_HILL_SLOPE 4.53, HEPG2TOX_R_SQUARED 0.902, PBLUC_HILL_SLOPE 7.46, PBLUC_R_SQUARED 0.34, read-out: LUCIFERASE INFECTION ASSAY - IC50): 2.98 µM
40 | COc1ccc(-c2cc(C3(CNCc4ccc(N(C)C)cc4)CC3)ccn2)cn1 | > 10 µM | > 10 µM | 
41 | COC(=O)c1c(C(=O)OC)c2n(c1C)CCS2 | > 12.9 µM | > 12.9 µM | 
42 | Cn1c(NCCOc2cccc3c2OC(C)(C)C3)c(C#N)c(=O)n(C)c1=O | > 10 µM | > 10 µM | 
43 | O=C(NCc1ccccc1)C(=Cc1ccc(-c2ccccc2)cc1)C(=O)NCc1ccccc1 | 9.48 µM |  | IC50 (PBLUC_HILL_SLOPE 2.95, PBLUC_R_SQUARED 0.782, read-out: LUCIFERASE INFECTION ASSAY - IC50): 4.51 µM
44 | CC(=O)c1cccc(-c2cnc3cnc(-c4cccnc4)cn23)c1 | > 10.5 µM |  | IC50 (PBLUC_HILL_SLOPE 3.62, PBLUC_R_SQUARED 0.754, read-out: LUCIFERASE INFECTION ASSAY - IC50): 6.77 µM
45 | O=S(=O)(c1ccc(Br)s1)N1CCC(C(c2ccccc2)c2ccccc2)CC1 | > 6.93 µM | > 6.93 µM | 
46 | O=c1cc(Nc2ccc(F)cc2)c2ccccc2o1 | 12.8 µM |  | IC50 (PBLUC_HILL_SLOPE 3.61, PBLUC_R_SQUARED 0.0806, read-out: LUCIFERASE INFECTION ASSAY - IC50): 6.97 µM
47 | CC(C)(C)OC(=O)N[C@@H](Cc1ccccc1)c1n[nH]c(=S)n1CC1CCCO1 (stereo partly drawn) | > 8.16 µM | > 8.16 µM | 
48 | CCCCCNC(=O)COC(=O)c1ccccc1-n1ncc(Cl)c(Cl)c1=O | 7.79 µM |  | IC50 (HEPG2TOX_HILL_SLOPE 4.14, HEPG2TOX_R_SQUARED 0.93, PBLUC_HILL_SLOPE 2.41, PBLUC_R_SQUARED 0.609, read-out: LUCIFERASE INFECTION ASSAY - IC50): 3.13 µM
49 | NC(CCc1ccccc1)c1csc(Nc2ccc(C(F)(F)F)cn2)n1 (stereo not drawn) | 4.5 µM |  | IC50 (PBLUC_HILL_SLOPE 84.8, PBLUC_R_SQUARED 0.093, read-out: LUCIFERASE INFECTION ASSAY - IC50): 4.38 µM
